# Measured values taken from PubChem BioAssay (NCI).
#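 Five concentrations, 48 hours, 96-well plates. TGI: concentration producing complete growth inhibition.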
# What was measured:
# Assay in all cases: NCI tumour cell line growth inhibition, 48 h
# CCRF-CEM leukemia = test system: CCRF-CEM leukemia
# LOX IMVI melanoma = test system: LOX IMVI melanoma
# UACC-62 melanoma = test system: UACC-62 melanoma
# SK-MEL-2 melanoma = test system: SK-MEL-2 melanoma
# KM12 colon = test system: KM12 colon
# SK-MEL-5 melanoma = test system: SK-MEL-5 melanoma
# NCI-H460 lung = test system: NCI-H460 lung
# DMS 273 small cell lung = test system: DMS 273 small cell lung
# UACC-257 melanoma = test system: UACC-257 melanoma
# SN12C renal = test system: SN12C renal
# SW-620 colon = test system: SW-620 colon
# SK-MEL-28 melanoma = test system: SK-MEL-28 melanoma
# K-562 leukemia = test system: K-562 leukemia
# MOLT-4 leukemia = test system: MOLT-4 leukemia
# HOP-18 NSCLC = test system: HOP-18 NSCLC
# HOP-62 NSCLC = test system: HOP-62 NSCLC
# RXF 393 renal = test system: RXF 393 renal
# HL-60(TB) leukemia = test system: HL-60(TB) leukemia
# A549 NSCLC = test system: A549 NSCLC
# HCT-116 colon = test system: HCT-116 colon
# OVCAR-8 ovarian = test system: OVCAR-8 ovarian
# DMS 114 small cell lung = test system: DMS 114 small cell lung
# DLD-1 colon = test system: DLD-1 colon
# HCC-2998 colon = test system: HCC-2998 colon
# OVCAR-4 ovarian = test system: OVCAR-4 ovarian
# RPMI-8226 leukemia = test system: RPMI-8226 leukemia
# KM20L2 colon = test system: KM20L2 colon
# SNB-75 CNS = test system: SNB-75 CNS
# HCT-15 colon = test system: HCT-15 colon
# SF-539 CNS = test system: SF-539 CNS
# NCI-H522 lung = test system: NCI-H522 lung
# U251 CNS = test system: U251 CNS
# SNB-78 CNS = test system: SNB-78 CNS
# HT29 colon = test system: HT29 colon
# NCI/ADR-RES ovarian = test system: NCI/ADR-RES ovarian
# SN12K1 renal = test system: SN12K1 renal
# M19-MEL melanoma = test system: M19-MEL melanoma
# SF-268 CNS = test system: SF-268 CNS
# SNB-19 CNS = test system: SNB-19 CNS
# P388 leukemia = test system: P388 leukemia
# HOP-92 NSCLC = test system: HOP-92 NSCLC
# EKVX NSCLC = test system: EKVX NSCLC
# MALME-3M melanoma = test system: MALME-3M melanoma
# A498 renal = test system: A498 renal
# MCF7 breast = test system: MCF7 breast
# COLO 205 colon = test system: COLO 205 colon
# NCI-H23 lung = test system: NCI-H23 lung
# IGROV1 ovarian = test system: IGROV1 ovarian
# OVCAR-5 ovarian = test system: OVCAR-5 ovarian
# OVCAR-3 ovarian = test system: OVCAR-3 ovarian
# RXF-631 renal = test system: RXF-631 renal
# CAKI-1 renal = test system: CAKI-1 renal
# NCI-H226 lung = test system: NCI-H226 lung
# UO-31 renal = test system: UO-31 renal
# SF-295 CNS = test system: SF-295 CNS
# LXFL 529 NSCLC = test system: LXFL 529 NSCLC
# SR leukemia = test system: SR leukemia
# SK-OV-3 ovarian = test system: SK-OV-3 ovarian
# TK-10 renal = test system: TK-10 renal
# 786-0 renal = test system: 786-0 renal
# XF 498 CNS = test system: XF 498 CNS
# M14 melanoma = test system: M14 melanoma
# ACHN renal = test system: ACHN renal
structure (smiles),measurement,setting,value
NC1CCCCC1,TGI,CCRF-CEM leukemia,> 562 µM
same,TGI,LOX IMVI melanoma,> 562 µM
same,TGI,UACC-62 melanoma,> 562 µM
same,TGI,SK-MEL-2 melanoma,> 562 µM
same,TGI,KM12 colon,> 562 µM
same,TGI,SK-MEL-5 melanoma,> 562 µM
same,TGI,NCI-H460 lung,> 562 µM
same,TGI,DMS 273 small cell lung,> 562 µM
same,TGI,UACC-257 melanoma,> 562 µM
same,TGI,SN12C renal,> 562 µM
same,TGI,SW-620 colon,> 562 µM
same,TGI,SK-MEL-28 melanoma,> 562 µM
same,TGI,K-562 leukemia,> 562 µM
same,TGI,MOLT-4 leukemia,> 562 µM
same,TGI,HOP-18 NSCLC,< 0.0562 µM
same,TGI,HOP-62 NSCLC,> 562 µM
same,TGI,RXF 393 renal,> 562 µM
same,TGI,HL-60(TB) leukemia,380 µM
same,TGI,A549 NSCLC,> 562 µM
same,TGI,HCT-116 colon,> 562 µM
same,TGI,OVCAR-8 ovarian,> 562 µM
same,TGI,DMS 114 small cell lung,> 56.2 µM
same,TGI,DLD-1 colon,> 562 µM
same,TGI,HCC-2998 colon,> 562 µM
same,TGI,OVCAR-4 ovarian,> 562 µM
same,TGI,RPMI-8226 leukemia,> 562 µM
same,TGI,KM20L2 colon,> 562 µM
same,TGI,SNB-75 CNS,> 562 µM
same,TGI,HCT-15 colon,> 562 µM
same,TGI,SF-539 CNS,418 µM
same,TGI,NCI-H522 lung,> 562 µM
same,TGI,U251 CNS,> 562 µM
same,TGI,SNB-78 CNS,> 562 µM
same,TGI,HT29 colon,> 562 µM
same,TGI,NCI/ADR-RES ovarian,> 562 µM
same,TGI,SN12K1 renal,> 562 µM
same,TGI,M19-MEL melanoma,> 562 µM
same,TGI,SF-268 CNS,> 562 µM
same,TGI,SNB-19 CNS,> 562 µM
same,TGI,P388 leukemia,243 µM
same,TGI,HOP-92 NSCLC,> 562 µM
same,TGI,EKVX NSCLC,> 562 µM
same,TGI,MALME-3M melanoma,> 562 µM
same,TGI,A498 renal,> 562 µM
same,TGI,MCF7 breast,> 562 µM
same,TGI,COLO 205 colon,> 56.2 µM
same,TGI,NCI-H23 lung,> 562 µM
same,TGI,IGROV1 ovarian,> 562 µM
same,TGI,OVCAR-5 ovarian,> 562 µM
same,TGI,OVCAR-3 ovarian,> 562 µM
CCOC(=O)/C(ON)=C(/CC/C(C(=O)OC)=C(\ON)C(=O)OCC)C(=O)OC,TGI,CCRF-CEM leukemia,> 100 µM
same,TGI,LOX IMVI melanoma,> 100 µM
same,TGI,UACC-62 melanoma,> 100 µM
same,TGI,SK-MEL-2 melanoma,> 100 µM
same,TGI,RXF-631 renal,> 100 µM
same,TGI,KM12 colon,> 100 µM
same,TGI,SK-MEL-5 melanoma,> 100 µM
same,TGI,NCI-H460 lung,> 100 µM
same,TGI,DMS 273 small cell lung,> 100 µM
same,TGI,UACC-257 melanoma,> 100 µM
same,TGI,SN12C renal,> 100 µM
same,TGI,SW-620 colon,> 100 µM
same,TGI,SK-MEL-28 melanoma,> 100 µM
same,TGI,K-562 leukemia,> 100 µM
same,TGI,MOLT-4 leukemia,> 100 µM
same,TGI,HOP-18 NSCLC,> 100 µM
same,TGI,HOP-62 NSCLC,> 100 µM
same,TGI,CAKI-1 renal,> 100 µM
same,TGI,RXF 393 renal,> 100 µM
same,TGI,HL-60(TB) leukemia,> 100 µM
same,TGI,A549 NSCLC,> 100 µM
same,TGI,HCT-116 colon,> 100 µM
same,TGI,OVCAR-8 ovarian,> 100 µM
same,TGI,NCI-H226 lung,> 100 µM
same,TGI,DMS 114 small cell lung,> 100 µM
same,TGI,DLD-1 colon,> 100 µM
same,TGI,HCC-2998 colon,> 100 µM
same,TGI,OVCAR-4 ovarian,> 100 µM
same,TGI,RPMI-8226 leukemia,> 100 µM
same,TGI,UO-31 renal,> 100 µM
same,TGI,KM20L2 colon,> 100 µM
same,TGI,SNB-75 CNS,> 100 µM
same,TGI,HCT-15 colon,> 100 µM
same,TGI,SF-539 CNS,> 100 µM
same,TGI,SF-295 CNS,> 100 µM
same,TGI,NCI-H522 lung,> 100 µM
same,TGI,U251 CNS,> 100 µM
same,TGI,LXFL 529 NSCLC,> 100 µM
same,TGI,SR leukemia,> 100 µM
same,TGI,SNB-78 CNS,> 100 µM
same,TGI,HT29 colon,> 100 µM
same,TGI,SK-OV-3 ovarian,> 100 µM
same,TGI,TK-10 renal,> 100 µM
same,TGI,M19-MEL melanoma,> 100 µM
same,TGI,SF-268 CNS,> 100 µM
same,TGI,SNB-19 CNS,> 100 µM
same,TGI,786-0 renal,> 100 µM
same,TGI,XF 498 CNS,> 100 µM
same,TGI,HOP-92 NSCLC,> 100 µM
same,TGI,EKVX NSCLC,> 100 µM
same,TGI,MALME-3M melanoma,> 100 µM
same,TGI,A498 renal,> 100 µM
same,TGI,M14 melanoma,> 100 µM
same,TGI,COLO 205 colon,> 100 µM
same,TGI,NCI-H23 lung,> 100 µM
same,TGI,IGROV1 ovarian,> 100 µM
same,TGI,OVCAR-5 ovarian,> 100 µM
same,TGI,ACHN renal,> 100 µM
same,TGI,OVCAR-3 ovarian,> 100 µM
CCOc1ccc(Nc2nc(C)c(C(=O)/C=C/c3ccc(Cl)cc3Cl)s2)cc1,TGI,CCRF-CEM leukemia,80.2 µM
same,TGI,LOX IMVI melanoma,31.8 µM
same,TGI,UACC-62 melanoma,77.4 µM
same,TGI,SK-MEL-2 melanoma,61.6 µM
same,TGI,RXF-631 renal,54.8 µM
same,TGI,KM12 colon,33.5 µM
same,TGI,SK-MEL-5 melanoma,38.8 µM
same,TGI,NCI-H460 lung,42.6 µM
same,TGI,DMS 273 small cell lung,45 µM
same,TGI,UACC-257 melanoma,53.8 µM
same,TGI,SN12C renal,37.1 µM
same,TGI,SW-620 colon,38.7 µM
same,TGI,SK-MEL-28 melanoma,51 µM
same,TGI,K-562 leukemia,93.5 µM
same,TGI,MOLT-4 leukemia,51.5 µM
same,TGI,HOP-18 NSCLC,66.7 µM
same,TGI,HOP-62 NSCLC,81.3 µM
same,TGI,CAKI-1 renal,55.4 µM
same,TGI,RXF 393 renal,40.6 µM
same,TGI,HL-60(TB) leukemia,65.6 µM
same,TGI,A549 NSCLC,45.9 µM
same,TGI,HCT-116 colon,38.3 µM
same,TGI,OVCAR-8 ovarian,40.7 µM
same,TGI,NCI-H226 lung,36.9 µM
same,TGI,DMS 114 small cell lung,56.5 µM
same,TGI,DLD-1 colon,84.5 µM
same,TGI,HCC-2998 colon,43.9 µM
same,TGI,OVCAR-4 ovarian,28.7 µM
same,TGI,RPMI-8226 leukemia,> 100 µM
same,TGI,UO-31 renal,51 µM
same,TGI,KM20L2 colon,52.2 µM
same,TGI,SNB-75 CNS,39.3 µM
same,TGI,HCT-15 colon,48.6 µM
same,TGI,SF-539 CNS,78.8 µM
same,TGI,SF-295 CNS,38.5 µM
same,TGI,NCI-H522 lung,43.2 µM
same,TGI,U251 CNS,37.9 µM
same,TGI,LXFL 529 NSCLC,37.5 µM
same,TGI,SR leukemia,71.2 µM
same,TGI,SNB-78 CNS,67.9 µM
same,TGI,HT29 colon,39.4 µM
same,TGI,SK-OV-3 ovarian,54.3 µM
same,TGI,TK-10 renal,52.6 µM
same,TGI,M19-MEL melanoma,47.4 µM
same,TGI,SF-268 CNS,77.3 µM
same,TGI,SNB-19 CNS,> 100 µM
same,TGI,786-0 renal,36.3 µM
same,TGI,XF 498 CNS,39.1 µM
same,TGI,HOP-92 NSCLC,68.3 µM
same,TGI,EKVX NSCLC,85.7 µM
same,TGI,MALME-3M melanoma,62.7 µM
same,TGI,A498 renal,50.5 µM
same,TGI,M14 melanoma,50.1 µM
same,TGI,COLO 205 colon,32.3 µM
same,TGI,NCI-H23 lung,44.1 µM
same,TGI,IGROV1 ovarian,85.1 µM
same,TGI,OVCAR-5 ovarian,> 100 µM
same,TGI,ACHN renal,71 µM
same,TGI,OVCAR-3 ovarian,41 µM
